Structures can show the parent of a compound that is named as a salt. Where two headings read alike, the source gives them in different places. Blank lines part the entries; values can stand above or below the compound they belong to.
Assay: Antimicrobial activity assay: whole-cell MIC by broth microdilution (NCCLS M7-A6)
Format: cell-based
Experimental: Whole-cell antimicrobial activity was determined by broth microdilution using the National Committee for Clinical Laboratory Standards (NCCLS) recommended procedure, Document M7-A6, “Methods for Dilution Susceptibility Tests for Bacteria that Grow Aerobically”. The compounds were tested in serial two-fold dilutions ranging from 0.016 to 16 mcg/mL. Compounds were evaluated against a panel of Gram-positive organisms, including Staphylococcus aureus WCUH29, Streptococcus pneumoniae 1629, Streptococcus pyogenes CN 10, and Enterococcus faecalis 2. In addition, compounds were evaluated against a panel of Gram-negative strains including Haemophilus influenzae NEMC1, E. coli 7623, and Moraxella catarrhalis Ravasio. The minimum inhibitory concentration (MIC) was determined as the lowest concentration of compound that inhibited visible growth. A mirror reader was used to assist in determining the MIC endpoint.
Compounds of the present invention have MIC's ≦20 μg/ml versus all the organisms named above.

[1] = versus all the organisms named above (S. aureus WCUH29, S. pneumoniae 1629, S. pyogenes CN 10, E. faecalis 2, H. influenzae NEMC1, E. coli 7623, M. catarrhalis Ravasio), read-out: MIC

SMILES: COc1ccc2ncc(Cl)c(CCN3CC[C@H](NCc4ccc5c(n4)NC(=O)CO5)[C@H](O)C3)c2c1 (single isomer, unassigned; enantiomer 2) [Example 6, 6-({(cis)-1-[2-(3-Chloro-6-methoxy-quinolin-4-yl)-ethyl]-3-hydroxy-piperidin-4-ylamino}-methyl)-4H-pyrido[3,2-b][1,4]oxazin-3-one Dihydrochloride Enantiomer 2]
MIC [1]: ≤ 2 µg/mL

SMILES: COc1ccc2ncc(Cl)c(CCN3CC[C@H](NCc4ccc5c(n4)NC(=O)CS5)[C@H](O)C3)c2c1 (single isomer, unassigned; enantiomer 2) [Example 8, 6-({(cis)-1-[2-(3-Chloro-6-methoxy-quinolin-4-yl)-ethyl]-3-hydroxy-piperidin-4-ylamino}-methyl)-4H-pyrido[3,2-b][1,4]thiazin-3-one Dihydrochloride Enantiomer 2]
MIC [1]: ≤ 2 µg/mL

SMILES: COc1ccc2ncc(Cl)c(CCN3CC[C@H](NCc4ccc5c(n4)NC(=O)CO5)[C@H](O)C3)c2n1.Cl.Cl (single isomer, unassigned; enantiomer 2) [Example 10, 6-({(cis)-1-[2-(3-Chloro-6-methoxy-[1,5]naphthyridin-4-yl)-ethyl]-3-hydroxy-piperidin-4-ylamino}-methyl)-4H-pyrido[3,2-b][1,4]oxazin-3-one Dihydrochloride Enantiomer 2]
MIC [1]: ≤ 2 µg/mL

SMILES: COc1ccc2ncc(Cl)c(CCN3CC[C@@H](NCc4ccc5c(n4)NC(=O)CS5)[C@H](O)C3)c2c1.Cl.Cl.Cl (single isomer, unassigned; enantiomer 2) [Example 17, 6-({(trans)-1-[2-(3-Chloro-6-methoxyquinolin-4-yl)ethyl]3-hydroxypiperidin-4-ylamino}methyl)-4H-pyrido[3,2-b][1,4]thiazin-3-one Trihydrochloride enantiomer 2]
MIC [1]: ≤ 2 µg/mL

SMILES: COc1ccc2ncc(Cl)c(CCN3CC[C@@H](NCc4ccc5c(n4)NC(=O)CO5)[C@H](O)C3)c2c1.Cl.Cl.Cl (single isomer, unassigned; enantiomer 2) [Example 18, 6-({(trans)-1-[2-(3-Chloro-6-methoxyquinolin-4-yl)ethyl]3-hydroxypiperidin-4-ylamino}methyl)-4H-pyrido[3,2-b][1,4]oxazin-3-one Trihydrochloride enantiomer 2]
MIC [1]: ≤ 2 µg/mL

SMILES: COc1ccc2ncc(Cl)c(CCN3CC[C@@H](NCc4ccc5c(n4)NC(=O)CS5)[C@H](O)C3)c2n1.Cl.Cl (single isomer, unassigned; enantiomer 2) [Example 39, (trans)-6-({1-[2-(3-Chloro-6-methoxy-[1,5]naphthyridin-4-yl)-ethyl]-3-hydroxy-piperidin-4-ylamino}-methyl)-4H-pyrido[3,2-b][1,4]-thiazin-3-one Dihydrochloride Enantiomer 2]
MIC [1]: ≤ 2 µg/mL

SMILES: COc1ccc2ncc(F)c(CCN3CC[C@@H](NCc4ccc5c(n4)NC(=O)CS5)[C@@H](O)C3)c2n1.Cl.Cl (single isomer, unassigned; enantiomer 2) [Example 70]
MIC: ≤ 2 µg/mL

SMILES: COc1ccc2ncc(F)c(C(O)CN3CCC(NCc4cc5c(cn4)OCCO5)CC3)c2n1.Cl.Cl.O (single isomer, unassigned; enantiomer 2) [Example 100, 2-{4-[(2,3-Dihydro[1,4]dioxino[2,3-c]pyridin-7-ylmethyl)amino]-1-piperidinyl}-1-[3-fluoro-6-(methoxy)-1,5-naphthyridin-4-yl]ethanol Dihydrochloride Hydrate Enantiomer 2]
MIC [1]: ≤ 2 µg/mL

SMILES: COc1cc(F)c2ncc(F)c(CCN3CC[C@H](NCc4cc5c(cn4)OCCO5)[C@H](F)C3)c2c1.Cl.Cl (single isomer, unassigned; enantiomer 2) [Example 144, cis-1-{2-[3,8-difluoro-6-(methoxy)-4-quinolinyl]ethyl}-N-(2,3-dihydro[1,4]dioxino[2,3-c]pyridin-7-ylmethyl)-3-fluoro-4-piperidinamine dihydrochloride Enantiomer 2]
MIC [1]: ≤ 2 µg/mL

MIC [1]: ≤ 2 µg/mL
SMILES: COc1ccc2ncc(F)c(CCN3CC[C@@H](NCc4cc5c(cn4)OCCO5)[C@@H](O)C3)c2n1.Cl.Cl (single isomer, unassigned; enantiomer 2) [Example 158]

MIC [1]: ≤ 2 µg/mL
SMILES: COc1ccc2ncc(Cl)c(CCN3CCC(NCc4cc5c(cn4)OCCO5)CC3)c2n1.Cl.Cl [Example 3, {1-[2-(3-Chloro-6-methoxy-[1,5]naphthyridin-4-yl)-ethyl]-piperidin-4-yl}-(2,3-dihydro-[1,4]dioxino[2,3-c]pyridin-7-ylmethyl)-amine Dihydrochloride]

SMILES: COc1ccc2ncc(Cl)c(CCN3CCC(NCc4cc5c(cn4)OCCO5)CC3)c2c1.Cl.Cl [Example 4, {1-[2-(3-Chloro-6-methoxy-quinolin-4-yl)-ethyl]-piperidin-4-yl}-(2,3-dihydro-[1,4]dioxino[2,3-c]pyridin-7-ylmethyl)-amine Dihydrochloride]
MIC [1]: ≤ 2 µg/mL

SMILES: COc1ccc2ncc(Cl)c(CCN3CCC(NCc4ccc5c(n4)NC(=O)CS5)CC3)c2c1.Cl.Cl.Cl [Example 13, 6-({1-[2-(3-Chloro-6-methoxyquinolin-4-yl)ethyl]piperidin-4-ylamino}methyl)-4H-pyrido[3,2-b][1,4]thiazin-3-one Trihydrochloride]
MIC [1]: ≤ 2 µg/mL

SMILES: COc1ccc2ncc(Cl)c(CCN3CCC(CO)(NCc4ccc5c(n4)NC(=O)CS5)CC3)c2c1.Cl.Cl [Example 21, 6-({1-[2-(3-Chloro-6-methoxyquinolin-4-yl)ethyl]4-hydroxymethylpiperidin-4-ylamino}methyl)-4H-pyrido[3,2-b][1,4]thiazin-3-one Dihydrochloride]
MIC [1]: ≤ 2 µg/mL

SMILES: COc1c(F)ccc2ncc(Cl)c(CCN3CCC(NCc4ccc5c(n4)NC(=O)CS5)CC3)c12.Cl.Cl [Example 22, 6-({1-[2-(3-Chloro-6-fluoro-5-methoxy-quinolin-4-yl)-ethyl]-piperidin-4-ylamino}-methyl)-4H-pyrido[3,2-b][1,4]thiazin-3-one Dihydrochloride]
MIC [1]: ≤ 2 µg/mL

SMILES: Cc1ccc2ncc(Cl)c(CCN3CCC(NCc4ccc5c(n4)NC(=O)CS5)CC3)c2n1.Cl.Cl [Example 23, 6-({1-[2-(3-Chloro-6-methyl-[1,5]naphthyridin-4-yl)-ethyl]-piperidin-4-ylamino}-methyl)-4H-pyrido[3,2-b][1,4]thiazin-3-one Dihydrochloride]
MIC [1]: ≤ 2 µg/mL

SMILES: Cl.Cl.O=C1CSc2ccc(CNC3CCN(CCc4c(Cl)cnc5ccc(F)cc45)CC3)nc2N1 [Example 25, 6-({1-[2-(3-Chloro-6-fluoro-quinolin-4-yl)-ethyl]-piperidin-4-ylamino}-methyl)-4H-pyrido[3,2-b][1,4]thiazin-3-one Dihydrochloride]
MIC [1]: ≤ 2 µg/mL

SMILES: Cl.Cl.Fc1ccc2ncc(Cl)c(CCN3CCC(NCc4cc5c(cn4)OCCO5)CC3)c2c1 [Example 26, {1-[2-(3-Chloro-6-fluoro-quinolin-4-yl)-ethyl]-piperidin-4-yl}(2,3-dihydro[1,4]dioxino[2,3-c]pyridin-7-ylmethyl)-amine Dihydrochloride]
MIC [1]: ≤ 2 µg/mL

SMILES: Cl.Cl.O=C1CSc2ccc(CNC3CCN(CCc4c(Cl)cnc5ccc(Cl)cc45)CC3)nc2N1 [Example 27, 6-({1-[2-(3,6-Dichloro-quinolin-4-yl)-ethyl]-piperidin-4-ylamino}-methyl)-4H-pyrido[3,2-b][1,4]thiazin-3-one Dihydrochloride]
MIC [1]: ≤ 2 µg/mL

SMILES: COc1ccc2ncc(F)c(CCN3CCC(NCc4ccc5c(n4)NC(=O)CS5)CC3)c2c1.Cl.Cl [Example 31, 6-({1-[2-(3-Fluoro-6-methoxyquinolin-4-yl)ethyl]piperidin-4-ylamino}methyl)-4H-pyrido[3,2-b][1,4]thiazin-3-one dihydrochloride]
MIC [1]: ≤ 2 µg/mL

SMILES: COc1ccc2ncc(F)c(CCN3CCC(NCc4cc5c(cn4)OCCO5)CC3)c2c1.Cl.Cl [Example 32, {1-[2-(3-Fluoro-6-methoxy-quinolin-4-yl)-ethyl]-piperidin-4-yl}-(2,3-dihydro-[1,4]dioxino[2,3-c]pyridin-7-ylmethyl)-amine dihydrochloride]
MIC [1]: ≤ 2 µg/mL

SMILES: COc1ccc2ncc(Br)c(CCN3CCC(NCc4cc5c(cn4)OCCO5)CC3)c2c1.Cl.Cl [Example 44, {1-[2-(3-Bromo-6-methoxy-quinolin-4-yl)-ethyl]-piperidin-4-yl}-(2,3-dihydro-[1,4]dioxino[2,3-c]pyridin-7-ylmethyl)-amine Dihydrochloride]
MIC [1]: ≤ 2 µg/mL

SMILES: COc1cc(F)c2ncc(F)c(CCN3CCC(NCc4cc5c(cn4)OCCO5)CC3)c2c1.Cl.Cl [Example 47, 1-{2-[3,8-difluoro-6-(methoxy)-4-quinolinyl]ethyl}-N-(2,3-dihydro[1,4]dioxino[2,3-c]pyridin-7-ylmethyl)-4-piperidinamine dihydrochloride]
MIC [1]: ≤ 2 µg/mL

SMILES: COc1cc(F)c2ncc(F)c(CCN3CCC(NCc4cnc5c(c4)NC(=O)CS5)CC3)c2c1.Cl.Cl [Example 48, 7-{[(1-{2-[3,8-Difluoro-6-(methoxy)-4-quinolinyl]ethyl}-4-piperidinyl)amino]methyl}-1H-pyrido[2,3-b][1,4]thiazin-2(3H)-one dihydrochloride]
MIC [1]: ≤ 2 µg/mL

SMILES: COc1cc(F)c2ncc(F)c(CCN3CCC(NCc4cc5c(cn4)OCO5)CC3)c2c1.Cl.Cl [Example 51, 1-{2-[3,8-difluoro-6-(methoxy)-4-quinolinyl]ethyl}-N-([1,3]dioxolo[4,5-c]pyridin-6-ylmethyl)-4-piperidinamine dihydrochloride]
MIC [1]: ≤ 2 µg/mL

SMILES: Cl.Cl.Clc1cnc2ccc3c(c2c1CCN1CCC(NCc2cc4c(cn2)OCCO4)CC1)OCCO3 [Example 52, {1-[2-(9-Chloro-2,3-dihydro-[1,4]dioxino[2,3-f]quinolin-10-yl)-ethyl]-piperidin-4-yl}-(2,3-dihydro-[1,4]dioxino[2,3-c]pyridin-7-ylmethyl)-amine dihydrochloride]
MIC [1]: ≤ 2 µg/mL

— patent publication US20060041123A1, “Antibacterial agents” (priority 2002, published 2006)
